What follows are compounds tested on A498 complex spheroid viability (assay: Anticancer human tumor A498 cell line growth inhibition). Conditions: second compound 1 µM; first compound 0.00949 µM; hits give low values.
Source text: Multicellular complex tumor spheroid response to LSD1 Inhibitor Iadademstat in combination with a variety of drugs and investigational agents in selected tumor cell lines
The current study was undertaken to assess response to LSD1 inhibitors in combination with standard-of-care drugs and investigational agents in solid tumor complex spheroid models as well as in the K-562 leukemia. Complex spheroids include a stromal component modeled by human endothelial cells (HUVEC) and fibroblasts modeled by human mesenchymal stem cells (MSCs). The concentration ranges selected for each drug and investigational agent were based upon clinically achievable concentrations if the clinical Cmax of the agent was known.
Compounds. The drugs and investigational agents used in this study are listed on Table 1. All of the agents used, including staurosporine (NSC755774) and gemcitabine (NSC613327), were obtained from the Developmental Therapeutics Program, NCI. FDA-approved anticancer drugs are available from the NCI at http://dtp.nci.nih.gov/branches/dscb/oncology_drugset_explanation.html. Drugs and investigational agents were >95% pure by proton nuclear magnetic resonance (NMR) and liquid chromatography/mass spectrometry (LC/MS). Stock solutions were prepared at 400x in DMSO, stored at -70 degrees C, and diluted in fresh medium prior to their use. The final concentration of DMSO in cell culture wells never exceeded 0.25% (v/v). The FDA-approved anticancer drug set is available from the Developmental Therapeutics Program at https://dtp.cancer.gov/organization/dscb/obtaining/available_plates.htm. All drugs and investigational agents were tested over a range starting from a high concentration at or near the clinical Cmax and decreasing in half-log increments. If the clinical Cmax for an agent had not been determined, the highest concentration tested was 10 microM.
Cell Lines. The patient-derived cancer cell (PDC) lines: 292921-168-R-J2-PDC, K24384-001-R-PDC, and 521955-158-R2-J5-PDC pancreatic carcinomas, 556581-035-R-J1 ovarian carcinoma, 324938-238-R-J1-PDC, 855422-203-R-J1-PDC and 883617-216-R-J1-PDC urothelial bladder carcinomas, 743489-274-T-PDC renal cell carcinoma, 138582-R-J1 Merkel cell tumor, K60290-347-R-J1 and K57222-313-R-J1-PDC glioblastomas, 653999-131-R-J2-PDC, LG0703-F948-PDC, and 349418-098-R-PDC non-small cell lung carcinomas, 885512-296-R-J2-PDC, 171881-019-R-J1-PDC breast carcinomas and 186277-243-T-J2-PDC and 233499-124-R-J2-PDC colon carcinomas were obtained from the NCI Patient-Derived Models Repository (PDMR, https://pdmr.cancer.gov). The established cell lines NCI/ADR-RES (RRID:CVCL_14520 and OVCAR-5 (RRID:CVCL_1628) ovarian carcinomas, 786-O (RRID:CVCL_1051) and A498 (RRID:CVCL_A498) renal cell carcinoma, NCI-H211 (ATCC, cat. CRL-5824; RRID:CVCL_1529), NCI-H196 (ATCC, cat. CRL-5823, RRID:CVCL_1509), SW 1271 (ATCC, cat. CRL-2177, RRID:CVCL_1716) and NCI-H1876 (ATCC, cat. CRL-5902, RRID:CVCL_1503) small cell lung carcinomas, MDA-MB-231 (RRID:CVCL_0062) and MDA-MB-468 (RRID:CVCL_0419)breast carcinomas (10-12). Pooled donor human umbilical vein endothelial cells (HUVEC, Lonza, cat. CC-2519) and human mesenchymal stem cells (hMSC, Lonza, cat. PT-2501) were purchased from Lonza (Walkersville, MD).
Cell Culture. All cells were maintained in an incubator at 37 degrees C and 5% CO2 with 95% humidity. The PDC lines were cultured according to standard operating procedures established by the NCI PDMR (https://pdmr.cancer.gov). Briefly all PDCs were thawed and cultured in Matrigel-coated flasks prepared with a working solution of 1X Ham's F-12 nutrient mix, without supplementation (Invitrogen, Waltham, MA, cat. 11765054), 100 U/mL penicillin-streptomycin (Invitrogen, cat. 15140122), and 2.5% Matrigel (Corning Inc., Corning, NY, cat. 354248) for the first three passages. […]
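Further: spheroids exposed to agents for seven days before readout; 100% = DMSO vehicle-treated spheroids.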

First: O=C(C=Cc1cccc(S(=O)(=O)Nc2ccccc2)c1)NO + NC1CC1c1ccc(-c2cccc(O)c2)cc1
Second: NS(=O)(=O)OCC1CC(n2ccc3c(NC4CCc5ccccc54)ncnc32)CC1O (stereo not given) + NC1CC1c1ccc(-c2cccc(O)c2)cc1
The viability, T/C of the first is higher: 98.4% for the first, 96.2% for the second.

Same assay, conditions: second compound 1 µM; first compound 0.03 µM; hits give low values

First: COc1cc(C2c3cc4c(cc3C(OC3OC5COC(C)OC5C(O)C3O)C3COC(=O)C23)OCO4)cc(OC)c1O (stereo not given) + NC1CC1c1ccc(-c2cccc(O)c2)cc1
Second: NS(=O)(=O)OCC1CC(n2ccc3c(NC4CCc5ccccc54)ncnc32)CC1O (stereo not given) + NC1CC1c1ccc(-c2cccc(O)c2)cc1
The viability, T/C of the first is lower: 63% for the first, 83.2% for the second.

Compared with Nc1ccccc1NC(=O)c1ccc(CNC(=O)OCc2cccnc2)cc1 + NC1CCC(NC2CC2c2ccccc2)CC1, O=C(C=Cc1cccc(S(=O)(=O)Nc2ccccc2)c1)NO + NC1CC1c1ccc(-c2cccc(O)c2)cc1 is higher in viability, T/C: 79.6% for the first, 88.3% for the second.

Same assay, conditions: second compound 1 µM; first compound 0.0949 µM; hits give low values

Going from COc1cc(C2c3cc4c(cc3C(OC3OC5COC(C)OC5C(O)C3O)C3COC(=O)C23)OCO4)cc(OC)c1O (stereo not given) + NC1CC1c1ccc(-c2cccc(O)c2)cc1 to NS(=O)(=O)OCC1CC(n2ccc3c(NC4CCc5ccccc54)ncnc32)CC1O (stereo not given) + NC1CC1c1ccc(-c2cccc(O)c2)cc1, the viability, T/C falls from 59.9% to 41.1%.

First: Nc1ccccc1NC(=O)c1ccc(CNC(=O)OCc2cccnc2)cc1 + NC1CCC(NC2CC2c2ccccc2)CC1
Second: O=C(C=Cc1cccc(S(=O)(=O)Nc2ccccc2)c1)NO + NC1CC1c1ccc(-c2cccc(O)c2)cc1
The viability, T/C of the first is lower: 68.4% for the first, 76.8% for the second.

Same assay, conditions: second compound 1 µM; first compound 0.3 µM; hits give low values

First: COc1cc(C2c3cc4c(cc3C(OC3OC5COC(C)OC5C(O)C3O)C3COC(=O)C23)OCO4)cc(OC)c1O (stereo not given) + NC1CC1c1ccc(-c2cccc(O)c2)cc1
Second: NS(=O)(=O)OCC1CC(n2ccc3c(NC4CCc5ccccc54)ncnc32)CC1O (stereo not given) + NC1CC1c1ccc(-c2cccc(O)c2)cc1
The viability, T/C of the first is higher: 49.8% for the first, 25.9% for the second.

Going from Nc1ccccc1NC(=O)c1ccc(CNC(=O)OCc2cccnc2)cc1 + NC1CCC(NC2CC2c2ccccc2)CC1 to O=C(C=Cc1cccc(S(=O)(=O)Nc2ccccc2)c1)NO + NC1CC1c1ccc(-c2cccc(O)c2)cc1, the viability, T/C rises from 40.9% to 49.3%.

Same assay, conditions: second compound 1 µM; first compound 0.949 µM; hits give low values

First: COc1cc(C2c3cc4c(cc3C(OC3OC5COC(C)OC5C(O)C3O)C3COC(=O)C23)OCO4)cc(OC)c1O (stereo not given) + NC1CC1c1ccc(-c2cccc(O)c2)cc1
Second: NS(=O)(=O)OCC1CC(n2ccc3c(NC4CCc5ccccc54)ncnc32)CC1O (stereo not given) + NC1CC1c1ccc(-c2cccc(O)c2)cc1
The viability, T/C of the first is higher: 54.1% for the first, 16.1% for the second.

Compared with Nc1ccccc1NC(=O)c1ccc(CNC(=O)OCc2cccnc2)cc1 + NC1CCC(NC2CC2c2ccccc2)CC1, O=C(C=Cc1cccc(S(=O)(=O)Nc2ccccc2)c1)NO + NC1CC1c1ccc(-c2cccc(O)c2)cc1 is higher in viability, T/C: 17.2% for the first, 28.4% for the second.

Same assay, conditions: second compound 1 µM; first compound 3 µM; hits give low values

Compared with COc1cc(C2c3cc4c(cc3C(OC3OC5COC(C)OC5C(O)C3O)C3COC(=O)C23)OCO4)cc(OC)c1O (stereo not given) + NC1CC1c1ccc(-c2cccc(O)c2)cc1, NS(=O)(=O)OCC1CC(n2ccc3c(NC4CCc5ccccc54)ncnc32)CC1O (stereo not given) + NC1CC1c1ccc(-c2cccc(O)c2)cc1 is lower in viability, T/C: 46.5% for the first, 12.8% for the second.

First: Nc1ccccc1NC(=O)c1ccc(CNC(=O)OCc2cccnc2)cc1 + NC1CCC(NC2CC2c2ccccc2)CC1
Second: O=C(C=Cc1cccc(S(=O)(=O)Nc2ccccc2)c1)NO + NC1CC1c1ccc(-c2cccc(O)c2)cc1
The viability, T/C of the first is lower: 1.13% for the first, 6.7% for the second.

Same assay, conditions: second compound 3.16 µM; first compound 0.00949 µM; hits give low values

Compared with COc1cc(C2c3cc4c(cc3C(OC3OC5COC(C)OC5C(O)C3O)C3COC(=O)C23)OCO4)cc(OC)c1O (stereo not given) + NC1CC1c1ccc(-c2cccc(O)c2)cc1, NS(=O)(=O)OCC1CC(n2ccc3c(NC4CCc5ccccc54)ncnc32)CC1O (stereo not given) + NC1CC1c1ccc(-c2cccc(O)c2)cc1 is higher in viability, T/C: 66.4% for the first, 101% for the second.

Going from Nc1ccccc1NC(=O)c1ccc(CNC(=O)OCc2cccnc2)cc1 + NC1CCC(NC2CC2c2ccccc2)CC1 to O=C(C=Cc1cccc(S(=O)(=O)Nc2ccccc2)c1)NO + NC1CC1c1ccc(-c2cccc(O)c2)cc1, the viability, T/C rises from 73.6% to 93.9%.

Same assay, conditions: second compound 3.16 µM; first compound 0.03 µM; hits give low values

Going from COc1cc(C2c3cc4c(cc3C(OC3OC5COC(C)OC5C(O)C3O)C3COC(=O)C23)OCO4)cc(OC)c1O (stereo not given) + NC1CC1c1ccc(-c2cccc(O)c2)cc1 to NS(=O)(=O)OCC1CC(n2ccc3c(NC4CCc5ccccc54)ncnc32)CC1O (stereo not given) + NC1CC1c1ccc(-c2cccc(O)c2)cc1, the viability, T/C rises from 53.6% to 73.7%.

First: Nc1ccccc1NC(=O)c1ccc(CNC(=O)OCc2cccnc2)cc1 + NC1CCC(NC2CC2c2ccccc2)CC1
Second: O=C(C=Cc1cccc(S(=O)(=O)Nc2ccccc2)c1)NO + NC1CC1c1ccc(-c2cccc(O)c2)cc1
The viability, T/C of the first is lower: 67.3% for the first, 84.4% for the second.

Same assay, conditions: second compound 3.16 µM; first compound 0.0949 µM; hits give low values

First: COc1cc(C2c3cc4c(cc3C(OC3OC5COC(C)OC5C(O)C3O)C3COC(=O)C23)OCO4)cc(OC)c1O (stereo not given) + NC1CC1c1ccc(-c2cccc(O)c2)cc1
Second: NS(=O)(=O)OCC1CC(n2ccc3c(NC4CCc5ccccc54)ncnc32)CC1O (stereo not given) + NC1CC1c1ccc(-c2cccc(O)c2)cc1
The viability, T/C of the first is higher: 55.9% for the first, 43.5% for the second.

Going from Nc1ccccc1NC(=O)c1ccc(CNC(=O)OCc2cccnc2)cc1 + NC1CCC(NC2CC2c2ccccc2)CC1 to O=C(C=Cc1cccc(S(=O)(=O)Nc2ccccc2)c1)NO + NC1CC1c1ccc(-c2cccc(O)c2)cc1, the viability, T/C rises from 59.8% to 66.6%.

Same assay, conditions: second compound 3.16 µM; first compound 0.3 µM; hits give low values

With COc1cc(C2c3cc4c(cc3C(OC3OC5COC(C)OC5C(O)C3O)C3COC(=O)C23)OCO4)cc(OC)c1O (stereo not given) + NC1CC1c1ccc(-c2cccc(O)c2)cc1 the viability, T/C was 52.2%.

— PubChem BioAssay AID1918947 (Molecular Pharmacology Branch, DTP, NCI, 2023)
